According to patent publication US10568854B2, “Compositions and methods for treating kabuki syndrome and related disorders” (THE JOHNS HOPKINS UNIVERSITY, priority 2014, dated 2020):
“Also recorded” adds a separate entry of the source.

Tested on: H3K4me3 in the GCL
Experiment: Immunofluorescence of H3K4me3 in dentate gyrus GCL (AR-42 treated mice)
Assay type: in vivo, mouse
Description: Animals: Kmt2d^+/βGeo mice, also named Mll2Gt^(RRt024)Byg, were acquired from Bay Genomics (University of California). All experimental mice were on a mixed C57BL/6J and 129/SvEv background. Expected Mendelian ratios were observed when heterozygous animals were bred to wild-type. In heterozygous crosses, however, there was uniform embryonic lethality of homozygotes by ED12, the earliest developmental stage assayed. For treatment with AR-42 mice were orally gavaged daily with drug (Selleck Chemicals, Houston, Tex.) solubilized in vehicle (0.5% methylcellulose, 0.1% Tween-80, water) or with vehicle alone. Drug delivery information was kindly provided by Drs. […] For quantification of DCX positive cells, doses of 0, 5, 10 and 25 mg/kg/day were used. […] Maxillary protrusion was evaluated by ten investigators blinded to genotype and they were asked to rate maxillary protrusion on radiographs as either large (2) or small (1). […]
Confocal microscopy: Z-stack images of slides were taken at either 10× using Zeiss Axiovert 200 with 510-Meta confocal module (Carl Zeiss, Jena, GER) or 25× using Zeiss AxioExaminer with 710NLO-Meta multiphoton (Carl Zeiss, Jena, GER). From 10× pictures, the GCL was highlighted and fluorescent intensities for both DAPI and H3K4me3 were measured at the midpoint of the entire z-stack (Zen software, Carl Zeiss, Jena, GER) with the value for Kmt2d^+/+ animals set equal to one. […]

CC(C)[C@H](C(=O)Nc1ccc(C(=O)NO)cc1)c1ccccc1 [AR-42, (S)—N-hydroxy-4-(3-methyl-2-phenylbutanamido)benzamide]
H3K4me3 in the GCL (25 mg/kg/day, oral gavage, two weeks): increased H3K4 trimethylation; also recorded: increased H3K4me3 | H3K4me3 in the GCL (5 and 10 mg/kg/day, both genotypes): dose-dependent increase in H3K4me3
